Reference: US20240148809A1, “CANNABIS PREVENTS NK IN[…] CANCER AND INCREASES NK FUNCTION” (The Regents of the University of California, priority 2020, published 2024)

Key:
[1] = test system: PBMCs (IFN-γ); assay: ELISPOT for IFN-γ spots in PBMCs of breast cancer patient P38/P77 treated with CBD; type: in vivo, human; settings: in words
Method: FIG. 10A-FIG. 10B show results of an enzyme-linked immunospot (ELISPOT) assay that was conducted to determine the numbers of IFN-γ spots representing the number of cells expressing IFN-γ. Treated (IL2, IL2+antiCD16, IL2+antiCD3/28) and untreated PMBC cells of a breast cancer patient P38 (who was treated with CBD) compared to two healthy control subjects, H43 and H44 (FIG. 10A). Treated (IL2, IL2+antiCD16, IL2+antiCD3/28) and untreated PMBC cells of a breast cancer patient P77 VB (who was treated with CBD) compared to a healthy control subject, H74 (FIG. 10B).
80 μl of anti-human IFN-γ capture antibody was added to each well of a 96-well high-protein-binding PVDF filter plate and incubated overnight at 4° C. The plate was washed with […] of PBS once before adding samples into the plate. 50,000 cells in 200 μl of RPMI were added into each well and incubate at 37° C., 5% CO2 overnight. After incubation, the plate was washed twice with 200 μl PBS followed by 0.05% 200 μl Tween-PBS twice. […] of anti-human IFN-γ detection antibody was added into each well and incubated at room temperature for 2 hours and the plate was washed three times with 200 μI/well of 0.05% Tween-PBS. 80 μI/well of tertiary solution which was made from 1:1000 diluted Strep-AP was added in the plate and incubated for 30 minutes. […]

[2] = test system: Oral Squamous Carcinoma Cells (OSCCs); assay: Cell death assay in OSCCs (loss of forward scatter and propidium iodide staining, flow cytometry); type: cell-based, human; settings: for % PI: Percent cell death induced in total population of tumor cells, as visualized by PI / % decrease in FS: Percent of cells that lost FS in total population of tumor cells: OSCC, overnight
Method: (§1) Oral Squamous Carcinoma Cells (OSCCs) and stem-like Oral Squamous Carcinoma Stem Cells (OSCSCs) were isolated from tumors of oral cancer patients at UCLA, and cultured in RPMI 1640 supplemented with 10% FBS (Gemini Bio-Products, CA, USA), 1.4% antibiotic antimycotic, 1% sodium pyruvate, 1.4% non-essential amino acids, 1% L-glutamine, 0.2% gentamicin (Gemini Bio-Products, CA, USA), and 0.15% sodium bicarbonate (Fisher Scientific, PA, USA).
(§2) OSCCs and OSCSCs were treated with different concentrations of Win55,2122-2 and cis-diamminedichloridoplatinum (II) (CDDP) as shown in FIGS. 1A-1B, FIG. 2 and Tables 1 and 2, and cultured overnight at 37 C in 5% CO2.
(§3) After an overnight incubation the cells were washed twice and stained with Propidium iodide at a concentration of […], as described by Jewett, A., et al., J Immunol, 1997. 159(10): p. 4815-22; Jewett, A. and B. Bonavida, J Clin Immunol, 1995. 15(1): p. 35-44; and Jewett, A. and B. Bonavida, J Immunol, 1996. 156(3): p. 907-15, each of which is incorporated herein by reference in its entirety.
(§4) Flow cytometric analysis was performed using Attune flow cytometer. Briefly, cells were analyzed based on Forward angle light scatter (FS) and Side scatter (SS), and the proportions of cells that had lost FS and became small were determined in total populations of tumor cells. Untreated and DMSO treated tumors were used as controls. In addition, the proportions of cells that were stained with PI were also determined.
OSCCs are differentiated oral squamous carcinoma cells; OSCCs were treated with different concentrations of Win55,2122-2, as indicated in FIGS. 1A-1B and Table 1.

[3] = test system: Oral Squamous Carcinoma Stem Cells (OSCSCs); assay: Cell death assay in OSCSCs (loss of forward scatter and propidium iodide staining, flow cytometry); type: cell-based, human; settings: for % PI: propidium iodide staining / % of decrease in FS: Percent of cells that lost FS in total population of tumor cells: overnight
Method: as §1, §2, §3, §4
OSCSCs are stem like oral squamous carcinoma cells; OSCSCs were treated with different concentrations of Win55,2122-2, as indicated in FIG. 2 and Table 2.

[4] = test system: NK cells in PBMCs (cytotoxicity against OSCSCs); assay: 51Cr release assay with PBMCs of treated hu-BLT mice against OSCSCs; type: in vivo; settings: IP for 27 days, PBMCs treated with IL-2 overnight, in words
Method: (§5) PBMCs (FIG. 11A and FIG. 11B) and CD3+ T cells (FIG. 11C) were isolated from hu-BLT mice after treatment of WIN 55,212-2 (intraperitoneal (IP) injection every 2 days at 2 mg/Kg in DMSO+saline for 27 days before sacrifice) or IL-15 (IP injection of 5 μg per mice for 27 days). PBMCs were isolated from peripheral blood and treated with IL-2 (1000 u/ml) overnight before they were used in 51 Cr release assay. The Lytic units (LU) 30/10^6 cells were determined by plotting the % cytotoxicity obtained at different effector to target ratios, and using that curve to determine the inverse number of NK cells required to lyse 30% of OSCSCs×100. The numbers of LU were then adjusted based on the % of NK cells obtained by flow cytometric analysis (FIG. 11A). PBMCs and CD3+ T cells culture supernatants were collected and IFN-γ secretions were determined using ELISA (FIG. 11B and FIG. 11C). CD3 T cells were isolated from splenocytes by negative selection of CD3+ T cells using an isolation kit (Stem cell technologies).

[5] = test system: PBMCs (IFN-γ); assay: IFN-γ ELISA of PBMC culture supernatants of treated hu-BLT mice; type: in vivo; settings: IP for 27 days, in words
Method: as §5

[6] = test system: CD3+ T cells (IFN-γ); assay: IFN-γ ELISA of culture supernatants of CD3+ T cells from splenocytes of treated hu-BLT mice; type: in vivo; settings: IP for 27 days, in words
Method: as §5

How did the “PBMC expression of IFN-γ (ELISPOT) compared to healthy control” value [1] turn out when `C=C(C)[C@@H]1CCC(C)=C[C@H]1c1c(O)cc(CCCCC)cc1O` [CBD, Cannabidiol] was run?
The value was “Comparable”.

Which “% PI: Percent cell death induced in total population of tumor cells, as visualized by PI” value (shortened to “% PI: Percent cell death induced”) ([2]; 30 μg/ml) does the source give for `N.N.[Cl][Pt][Cl]` [CDDP, cis-diamminedichloridoplatinum (II)] here?
The value was 23.8%.

What about the “% decrease in FS: Percent of cells that lost FS in total population of tumor cells” value (shortened to “% decrease in FS: Percent”) ([2]; 30 μg/ml) of the same compound?
Its value is 51%.

And the “% PI: Percent cell death induced” value ([2]; 50 μg/ml)?
The value was 18.9%.

And the “% decrease in FS: Percent” value ([2]; 50 μg/ml)?
Its value is 53%.

How did the “% PI: Percent cell death induced” value ([2]; 5 μM) turn out when `CS(=O)(=O)O.Cc1c(C(=O)c2cccc3ccccc23)c2cccc3c2n1[C@H](CN1CCOCC1)CO3` [Win55,2122-2, (R)-(+)-[2,3-Dihydro-5-methyl-3-(4-morpholinylmethyl)pyrrolo[1,2,3-de]-1,4-benzoxazin-6-yl]-1-naphthalenylmethanone mesylate] was run?
The value was 23.1%.

What about the “% decrease in FS: Percent” value ([2]; 5 μM) of the same compound?
The value was 52%.

What about the “% PI: Percent cell death induced” value ([2]; 25 μM) of the same compound?
The value was 32.9%.

What about the “% decrease in FS: Percent” value ([2]; 25 μM) of the same compound?
Its value is 75%.

What about the “% PI: Percent cell death induced” value ([2]; 50 μM) of the same compound?
Its value is 51.6%.

What about the “% decrease in FS: Percent” value ([2]; 50 μM) of the same compound?
The value was 78%.

And the “% PI: Percent cell death induced” value ([2]; 100 μM)?
The value was 51.6%.

And the “% decrease in FS: Percent” value ([2]; 100 μM)?
Its value is 77%.

And the “induction of cell death in differentiated oral tumors” value ([2]; OSCCs, in words)?
Its value is “potent inducer of cell death”.

What about the “% PI: propidium iodide staining” value ([3]; 5 μM) of the same compound?
The value was 11.5%.

What about the “% of decrease in FS: Percent of cells that lost FS in total population of tumor cells” value (shortened to “% of decrease in FS: Percent … of tumor cells”) ([3]; 5 μM) of the same compound?
The value was 15%.

What about the “% PI: propidium iodide staining” value ([3]; 25 μM) of the same compound?
The value was 26.3%.

What about the “% of decrease in FS: Percent … of tumor cells” value ([3]; 25 μM) of the same compound?
The value was 24%.

And the “% PI: propidium iodide staining” value ([3]; 50 μM)?
The value was 21.7%.

And the “% of decrease in FS: Percent … of tumor cells” value ([3]; 50 μM)?
The value was 16%.

What about the “cell death by staining with PI” value ([3]; compared to untreated or DMSO treated tumors, in words) of the same compound?
Its value is “no or moderate levels of cell death”.

What about the “change of FS” value ([3]; even at the higher concentrations, in words) of the same compound?
The value was “did not change FS”.

And the “NK cell mediated cytotoxicity in PBMC” value [4]?
Its value is “higher”.

What about the “IFN-γ secretion in PBMC” value [5] of the same compound?
Its value is “higher”.

And the “IFN-γ secretion in CD3+ T cells” value [6]?
Its value is “higher”.

Which results are given for “IL-15: IL-15, IP injection of 5 μg per mice for 27 days in hu-BLT mice”?
NK cell mediated cytotoxicity in PBMC [4]: higher; IFN-γ secretion in CD3+ T cells [6]: higher
